# Assay results: patent US20090029856A1, “Hinokitiol As A Plant Pesticide” (priority 2007, published 2009)
# Like-named read-outs stand apart in the source and are kept apart here.
# Tests used:
# [1] = system: 2-week-old cucumber plants; details: in vivo
# Experimental: Ethoxylated fatty esters (e.g., polyethylene 20 sorbitan monooleate, polyethylene 20 sorbitan monolaurate), ethoxylated alcohols (e.g., Genapol UD-80, UD 110, O-100 and O-200, Clariant Corporation) were chosen for phytotoxic screening in this study. […] These formulations were diluted 100 times with tap water and then sprayed on 2-week-old cucumber plants. […] Precipitation would happen to Oxylignin (sodium salt) when pH reached to 8.0 and then increased with pH.
# [2] = Sun exposure experiment in vials, HPLC analysis of hinokitiol; assay type: physicochemical
# Experimental: HPLC analysis: HPLC systems include waters 2695 separation modules with auto sampler, waters 2996 photodiode array detector, Masslynx software and Sunfire™ C18 column (5 μm, 4.6×150 mm). […] Gradient mobile phase was adopted. […] Hinokitiol complex with citric acid was monitored at 320 nm. The column temperature was kept at 30° C. during the experiment. […] The vials were put on a rack. […] After sunlight exposure, rack and vials were immediately stored at 4° C. or subsamples were taken for HPLC analysis. Visual observation was recorded before subsamples were taken. Vials were vortexed very well before subsamples were taken. Triplicates were carried out for each sample. All sun light exposure in the later studies was the same unless stated. Temperature in all this studies varied between 75 to 95° F.
Degradation of hinokitiol (%) [2] [%],degradation of hinokitiol in the formulation compared with other UV protection agents [2],Degradation of hinokitiol (%) ([2]; pH 7.4),Degradation of hinokitiol (%) ([2]; pH 8.29),Degradation of hinokitiol (%) ([2]; pH 9.61),Substance,phytotoxicity on 2-week-old cucumber plants ([1]; pH 10),phytotoxicity (shown or not) [1]
40 ± 1,much slower,40 ± 3,30 ± 2,21 ± 4,Humic acid,no obvious phytotoxicity,
,,,,,polyethylene 20 sorbitan monooleate,,did not show any obvious phytotoxicity
